Reference: patent publication US20090123564A1, “NOVEL COMPOSITIONS FOR HAIR DISORDERS AND PROCESS OF PREPARATION THEREOF” (priority 2006, published 2009)

Legend:
[1] = tested on: testosterone-induced alopecia in hamsters; assay: Dose-response of Vernonia extract gel versus Vernonia freeze dried juice gel in testosterone-challenged hamsters; format: in vivo; conditions: day 22; 0-3 scale; normal control=1.31±0.18
Experimental: A further study was performed to study the dose-response of Vernonia extract gel and to compare its hair growth promoting effect against Vernonia freeze dried juice gel. The Vernonia extract gel was prepared by making an organic solvent extract of Vernonia and formulating it into a gel composition. The Vernonia freeze dried juice gel was prepared by expressing the juice from fresh leaves and flowering tops of Vernonia followed by freeze drying and formulating it into a gel composition. Male hamsters (n=6-8/group) weighing 80-90 g procured from the Central animal house of Panacea Biotec Ltd. were used. Drugs used to induce alopecia was Testosterone i.m. depot injection (Testoviron); B.No. K1007, German Remedies Limited; each ml of which contains Testosterone Enanthate USP . . . 250 mg and Arachis oil IP . . . qs. The following were used for conducting the study namely Vernonia extract gels B.No. 0629/030A (0.5% w/w), B.No. 0629/030B (1% w/w) and B.No. 0629/030C (2% w/w); and Vernonia freeze dried juice gels B.No. 0629/026A (1.25% w/w) and B.No. 0629/026B (2.5% w/w) (prepared according to Example-5 and Example-6 as stated hereinafter). […]
(§1) Testosterone was administered intramuscularly in divided doses, whereas Vernonia cream (s) (100 mg) was applied topically twice daily. […] The hair growth presented as mean was analyzed by one-way ANOVA followed by Student-Newman-Keuls multiple-range test. […]

[2] = tested on: androgen induced alopecia in hamsters; assay: Comparative efficacy of Vernonia anthelmintica extract against finasteride in androgen induced alopecia; format: in vivo; conditions: for Mean ± SEM hair growth on a 0-3 scale: hamsters given testosterone i.m., treatments twice daily for 21 days, control 2.75 ± 0.171
Experimental: Hamsters were divided into five different groups; one normal control group, three drug treated groups and one testosterone control group. On day 0 of the study, the fur over and around the flank organs was shaved with electric clippers. 95% alcohol (100 μl/site) was applied topically, twice daily to Testosterone Control and Normal control groups for 21 days. Saw Palmetto cream was applied topically (100 mg/site) twice daily for 21 days. 100 μl/site of 2% solution of Vernonia anthelmintica extract was applied topically, twice daily for 21 days. Finasteride (0.6 mg/kg) was administered orally twice daily for 21 days. Different groups except normal control group was administered testosterone (25 mg, i.m. in divided doses of 33.3 μl on day 0, 7, and 14) 1-hour post drug administration. At day 7, the fur around the flank organs was re-clipped. The amount of hair growth on the area surrounding the flank organs was visually graded at weekly intervals on a 0-3 scale (0=bald skin, 1=slight hair growth, 2=moderate hair growth and 3=full hair growth). The result is presented in table-2 and shown graphically in FIG. 3.

[3] = tested on: testosterone-induced alopecia in hamsters; assay: Strength of Vernonia creams in testosterone-induced alopecia in hamsters; format: in vivo; conditions: day 22; 0-3 scale; creams 100 mg topical bid for 21 days; normal control=3
Experimental: Male hamsters (n=6/group) weighing 80-90 g procured from Central animal house of Panacea Biotec Ltd. were used. Drugs used to induce alopecia was Testosterone i.m. depot injection (Testoviron); B.No. K1007, German Remedies Limited; each ml of which contains Testosterone Enanthate USP . . . 250 mg and Arachis oil IP . . . qs. Four batches of Vernonia creams of different strengths were used for conducting the study namely B.No. 0629/010A (2% w/w), B.No. 0629/010C (0.2% w/w), B.No. 0629/014A (2% w/w) and B.No. 0629/014C (0.2% w/w) prepared according to Example-3 and Example 4 as stated hereinafter. The route of administration of the cream compositions was topical and the duration of study was 22 days. The fur over and around the flank organs of hamsters was shaved with electric clippers. Hamsters were divided into four different groups and allocated different treatments. The summary of different treatments is represented in Table-3.
as §1, with “cream(s)” for “cream (s)”, “daily. All the treatments were given for 21 days. On day 7, the fur around the flank organs was re-clipped.” for “daily.”

[4] = tested on: testosterone-induced alopecia in hamsters; assay: Vernonia anthelmintica extract against testosterone-induced alopecia in hamsters; format: in vivo; conditions: day 22; visual grading on 0-3 scale (0=bald skin, 3=full hair growth); control=2.0
Experimental: The efficacy of an extract of Vernonia anthelmintica (prepared according to Example-1 as stated hereinafter) against testosterone-induced alopecia in hamsters was studied. Male hamsters (n=6/group) weighing 90-120 g were procured from central animal house of Panacea Biotec Ltd. for study. Drugs used to induce alopecia was Testosterone i.m. depot injection (Testoviron); B.No. K1007, German Remedies Limited; each ml of which contains Testosterone Enanthate USP . . . 250 mg and Arachis oil IP . . . qs. The route of administration of the cream compositions was topical and the duration of study was 22 days. Hamsters were divided into two different groups; one Vernonia anthelmintica extract treated groups and another testosterone control group. On day 0 of study, the fur over and around the flank organs would be shaved with electric clippers.
Testosterone was administered intramuscularly in divided doses, whereas Vernonia anthelmintica extract was applied topically twice daily for 21 days. On day 7, the fur around the flank organs was re-clipped. The amount of hair growth on the area surrounding the flank organs was visually graded on day 22 on a 0-3 scale (0=bald skin, 1=slight hair growth, 2=moderate hair growth and 3=full hair growth). Photographs of flank organ were taken on day 0 and 22. […]

leukenia cells L-1210 = conditions: L-1210 cells; cited from earlier work
leukenia cells P-388 = conditions: P-388 cells; cited from earlier work
[5] = tested on: human carcinoma nasopharynx cells; conditions: cited from earlier work
[6] = tested on: dihydrotestosterone (DHT); conditions: cited from earlier work

Compound: CCCCCCC(=O)O[C@H]1CC[C@H]2[C@@H]3CCC4=CC(=O)CC[C@]4(C)[C@H]3CC[C@]12C [Testosterone, Testosterone Enanthate]
- Hair growth score [1]: 0
- Mean ± SEM hair growth on a 0-3 scale [2]: 1.33 ± 0.211
- Hair growth score [3]: 0.13
- Hair growth score [4]: 0.58±0.15

Compound: vernodaline
- IC50, antitumoral effects (leukenia cells L-1210): 0.17 µg/mL
- IC50, antitumoral effects (leukenia cells P-388): 0.11 µg/mL

Compound: vernolide
- IC50, antitumoral effects (leukenia cells L-1210): 0.11 µg/mL
- IC50, cytotoxic effects [5]: 2.0 µg/mL
- IC50, antitumoral effects (leukenia cells P-388): 0.13 µg/mL

Compound: CC(C)(C)NC(=O)[C@H]1CC[C@H]2[C@@H]3CC[C@H]4NC(=O)C=C[C@]4(C)[C@H]3CC[C@]12C [Finasteride]
- Reversal of testosterone induced-hair loss ([2]; day 22): significantly reversed testosterone induced-hair loss
- Mean ± SEM hair growth on a 0-3 scale [2]: 2.20 ± 0.339
- Decrease of DHT concentration in the scalp ([6]; scalp): ≤ 60%
- Decrease of DHT concentration in the serum ([6]; serum): up to 70%
